The numbers were not newly measured in patent US20260295054A1, “GLUCAGON-LIKE PEPTIDE-1 RECEPTOR AGONIST VARIANTS AND METHODS THEREOF” (Neuraly, Inc., priority 2023, published 2026), which cites them from elsewhere.

Like-named read-outs stand apart in the source and are kept apart here.

The conditions of data set [1]: humans.
Another data set concerns type 2 diabetic subjects. The note with it: for HbA1c reduction from baseline: week 16.

Take albiglutide: the serum half-life in data set [1] is recorded as ~ 5 days. The “HbA1c reduction from baseline” value in the data set on type 2 diabetic subjects (30 mg weekly) is recorded as 0.87%; in the data set on type 2 diabetic subjects (50 mg biweekly), 0.79%; with type 2 diabetic subjects (100 mg monthly), 0.87%. Further, the “albiglutide concentrations between monthly doses” value in the data set with type 2 diabetic subjects (monthly dosing) is recorded as “fall essentially to zero between monthly doses”. Moreover, the “fasting blood glucose control” value in the data set on type 2 diabetic subjects (monthly dosing) is “substantial loss in fasting blood glucose control”. Also, in the data set with type 2 diabetic subjects (monthly vs weekly dosing), the “nausea and vomiting on dosing days” value is “significantly greater incidence of nausea and vomiting”.
